The source of these data is PubChem BioAssay AID1845219 (Molecular Pharmacology Branch, DTP, NCI, 2023).

The experiment relates to SYO-1 tumor spheroids, viability % test/control. Kind of experiment: Anticancer human tumor SYO-1 cell line growth inhibition.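 On all read-outs here: spheroids exposed to agents for 7 days before viability read.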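 On viability, T/C: 100% = DMSO vehicle control.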 As to conditions: spheroids with HUVEC and MSC; for viability, T/C: stronger effect = lower value. From the text: Multicellular complex tumor spheroid response to DNA repair inhibitors in combination with DNA-damaging drugs
This study explores the anticancer activities of DNA-damaging drugs and inhibitors of DNA damage repair, both as single agents and in combinations. Complex tumor spheroids comprised of malignant cells, endothelial cells and mesenchymal stem cells served as an in vitro model for human solid tumors. This model system incorporates physiologically relevant features and patient-derived or established malignant cell lines with clinically relevant genetic alterations from many tumor types. Twenty-six patient-derived or established malignant cell lines were evaluated representing sarcoma, melanoma, small cell lung cancer (SCLC), non-small cell lung cancer (NSCLC), as well as bladder, ovarian and pancreatic cancers. The concentration ranges selected for each drug and investigational agent were based upon clinically achievable concentrations if the clinical Cmax of the agent was known.
Compounds. The drugs and compounds olaparib (NSC753686), talazoparib (NSC767125), berzosertib (NSC777718), elimusertib (NSC800525), nedisertib (NSC802822), VX-984 (NSC792969), AZD-1390 (NSC803789), temozolomide (NSC362856), topotecan (NSC609699), trabectedin (NSC813783), staurosporine (NSC755774), and gemcitabine (NSC613327) were obtained from the National Cancer Institute (NCI) Developmental Therapeutics Program Chemical Repository. The FDA-approved anticancer drug set is available from the Developmental Therapeutics Program at https://dtp.cancer.gov/organization/dscb/obtaining/available_plates.htm. […] The stock solutions were prepared in dimethyl sulfoxide (DMSO, Sigma-Aldrich, St. Louis, MO, cat. D2650) at 400-fold the tested concentration and stored at -70 degrees C. Prior to their use, the stock solutions were diluted in fresh medium and the final DMSO concentration in the assay was 0.25% (v/v). All drugs and investigational agents were tested over a range starting from a high concentration at or near the clinical Cmax and decreasing in half-log increments. If the clinical Cmax for an agent had not been determined, the highest concentration tested was 10 microM.
Cell Lines. The patient-derived cancer cell (PDC) lines: 156681-154-R-J1-PDC, 283228-195-R-J1-PDC, 287954-098-R-J1-PDC, 292921-168-R-J2-PDC, 349418-098-R-PDC, 425362-245-T-J1-PDC, 556581-035-R-J1-PDC, and BL0293-F563-PDC were received from the NCI Patient-Derived Models Repository (PDMR, https://pdmr.cancer.gov). The established cell lines HS-SY-2 (RRID:CVCL_8719), MPNST, and SYO-1 (RRID:CVCL_7146) were obtained from the Sloan Kettering Institute. The alveolar soft parts sarcoma cell line ASPS-1 (RRID:CVCL_S738) was established at the NCI and grown from internal seed stocks. The following established cell lines were purchased from the American Type Culture Collection (ATCC, Manassas, VA): G-401 (ATCC, cat. CRL-1441, RRID:CVCL_0270), SW982 (ATCC, cat. HTB-93, RRID:CVCL_1734), VA-ES-BJ (ATCC, cat. CRL-2138, RRID:CVCL_1785), NCI-H719 (ATCC, cat. CRL-5837, RRID:CVCL_1582), NCI-H196 (ATCC, cat. CRL-5823, RRID:CVCL_1509), NCI-H841 (ATCC, cat. CRL-5845, RRID:CVCL_1595), NCI-H1618 (ATCC, cat. CRL-5879, RRID:CVCL_1480), NCI-H1876 (ATCC, cat. CRL-5902, RRID:CVCL_1503), DMS 114 (ATCC, cat. CRL-2066; RRID:CVCL_1174), NCI-H211 (ATCC, cat. CRL-5824; RRID:CVCL_1529), and SW 1271 (ATCC, cat. CRL-2177, RRID:CVCL_1716). The small cell lung cancer cell line COR-L88 was purchased from Sigma-Aldrich (cat. 92031917-1VL, RRID:CVCL_1141). The non-small cell lung cancer cell lines NCI-H226 (RRID:CVCL_1544) and NCI-H322M (RRID:CVCL_1557) were established at the NCI and grown from internal seed stocks. Pooled donor human umbilical vein endothelial cells (HUVEC, Lonza, cat. CC-2519) and human mesenchymal stem cells (hMSC, Lonza, cat. PT-2501) were purchased from Lonza (Walkersville, MD).
Cell Culture. All cells were maintained in an incubator at 37 degrees C and 5% CO2 with 95% humidity. […]

As usually defined, the viability, T/C is the ratio of treated to control. In general, IC50 refers to the concentration needed to halve the response being measured. `COc1cc2c(cc1O)CCNC21CSC2c3c(OC(C)=O)c(C)c4c(c3C(COC1=O)N1C(O)C3Cc5cc(C)c(OC)c(O)c5C(C21)N3C)OCO4` (stereo not given): the viability, T/C (compound 30 pM) was 97.6% [middle of 10 runs]; the viability, T/C (compound 0.0003 µM) is 14.7% [middle of 10 runs]; the viability, T/C (compound 0.000949 µM) was 1.05% [middle of 10 runs]; the viability, T/C (compound 0.003 µM) was 0.12% [middle of 7 runs]. The half-maximal inhibitory concentration (IC50) (compound alone, run of 12/12/2019) is 0.179 nM [middle of 9 runs].
